For this assay, the target named is 5-hydroxytryptamine receptor 1D (Bos taurus). In words: Affinity pKi for 5-hydroxytryptamine 1D receptor was measured in calf caudate homogenate.

Usually Ki stands for a dissociation constant, usually derived from enzyme kinetics or from competition with a known ligand. Read a high Ki as a looser hold on the target. `CCOC(=O)c1[nH]c2ccc(CCN3C(=O)CNC3=O)cc2c1CCN(C)C` gave a Ki of 10 µM.

The record behind these values is BindingDB's records for doi:10.1021/jm9605849 (Monash University, 1997).
